Reference: patent publication US9169254B2, “Spiroimidazolone derivative” (Chugai Seiyaku Kabushiki Kaisha, priority 2009, dated 2015)
Counter-ions that a name gives are not always drawn.

Target: T1, human PTH1 receptor (Homo sapiens, UniProt Q03431)
T1 sequence (Q03431 27-593): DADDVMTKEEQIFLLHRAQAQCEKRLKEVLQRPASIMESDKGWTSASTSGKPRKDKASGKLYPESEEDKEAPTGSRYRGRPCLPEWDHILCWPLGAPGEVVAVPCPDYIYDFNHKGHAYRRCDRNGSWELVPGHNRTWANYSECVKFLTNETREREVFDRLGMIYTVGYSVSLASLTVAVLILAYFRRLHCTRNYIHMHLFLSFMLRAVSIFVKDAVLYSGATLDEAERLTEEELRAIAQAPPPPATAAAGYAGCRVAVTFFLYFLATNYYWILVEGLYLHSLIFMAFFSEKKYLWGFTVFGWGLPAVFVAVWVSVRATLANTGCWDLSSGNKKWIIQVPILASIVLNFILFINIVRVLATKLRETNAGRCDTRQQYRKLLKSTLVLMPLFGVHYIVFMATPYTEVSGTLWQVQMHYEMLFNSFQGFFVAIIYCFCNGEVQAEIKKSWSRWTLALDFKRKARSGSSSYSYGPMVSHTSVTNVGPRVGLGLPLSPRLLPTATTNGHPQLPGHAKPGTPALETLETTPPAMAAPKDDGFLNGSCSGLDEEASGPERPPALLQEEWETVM
Test: In vitro cAMP signal activity in HKRK-B7 cells (LLC-PK1 cells overexpressing the human PTH1 receptor)
Assay type: cell-based
Conditions: HKRK-B7 cells, compound at 1×10^−3 M

[1] = cAMP produced as percentage of that produced by hPTH(1-34) at 100 nM

Structure (SMILES)	cAMP production activity (%) [1]	cAMP production activity (%) ([…], 0.1 µM)
CCc1cc(N(C)C(N)=O)ccc1/C=C/S(=O)(=O)N1CCC2(CC1)N=C(C1CCC(C)CC1)NC2=O (centres unmarked) [Compound 727, 1-(3-ethyl-4-{(E)-2-[2-(4-methyl-cyclohexyl)-4-oxo-1,3,8-triaza-spiro[4.5]dec-1-ene-8-sulfonyl]-vinyl}-phenyl)-1-methyl-urea]	52%	–
Cc1cc(N(CC#N)C(N)=O)ccc1/C=C/S(=O)(=O)N1CCC2(CC1)N=C(c1cccc(OC(F)(F)F)c1)NC2=O [Compound 729, 1-Cyanomethyl-1-(3-methyl-4-{(E)-2-[4-oxo-2-(3-trifluoromethoxy-phenyl)-1,3,8-triaza-spiro[4.5]dec-1-ene-8-sulfonyl]-vinyl}-phenyl)-urea]	45%	–
Cc1cc(N(C(N)=O)C2CCCC2)ccc1/C=C/S(=O)(=O)N1CCC2(CC1)N=C(c1cccc(OC(F)(F)F)c1)NC2=O [Compound 730, 1-cyclopentyl-1-(3-methyl-4-{(E)-2-[4-oxo-2-(3-trifluoromethoxy-phenyl)-1,3,8-triaza-spiro[4.5]dec-1-ene-8-sulfonyl]-vinyl}-phenyl)-urea]	74%	–
Cc1cc(N(CC(F)(F)F)C(N)=O)ccc1/C=C/S(=O)(=O)N1CCC2(CC1)N=C(c1cccc(OC(F)(F)F)c1)NC2=O [Compound 731, 1-(3-Methyl-4-{(E)-2-[4-oxo-2-(3-trifluoromethoxy-phenyl)-1,3,8-triaza-spiro[4.5]dec-1-ene-8-sulfonyl]-vinyl}-phenyl)-1-(2,2,2-trifluoro-ethyl)-urea]	54%	–
CCC1CCC(C2=NC3(CCN(S(=O)(=O)CCc4c(C)cc(N(C)C(N)=O)cc4C)CC3)C(=O)N2)CC1 (centres unmarked) [Compound 732, 1-(4-{2-[2-(4-Ethyl-cyclohexyl)-4-oxo-1,3,8-triaza-spiro[4.5]dec-1-ene-8-sulfonyl]-ethyl}-3,5-dimethyl-phenyl)-1-methyl-urea]	45%	–
O=C(Cn1ccc2c(/C=C/S(=O)(=O)N3CCC4(CC3)N=C(C3CCCCC3)NC4=O)cccc21)Nc1ccncc1 [Compound 736, 2-{4-[(E)-2-(2-Cyclohexyl-4-oxo-1,3,8-triaza-spiro[4.5]dec-1-ene-8-sulfonyl)-vinyl]-indol-1-yl}-N-pyridin-4-yl-acetamide]	–	16%
Cc1cc(CC(N)=O)ccc1/C=C/S(=O)(=O)N1CCC2(CC1)N=C(C1CCC(C)CC1)NC2=O (centres unmarked) [Compound 737, 2-(3-Methyl-4-{(E)-2-[2-(4-methyl-cyclohexyl)-4-oxo-1,3,8-triaza-spiro[4.5]dec-1-ene-8-sulfonyl]-vinyl}-phenyl)-acetamide]	96%	–
Cc1cc(N(C)C(N)=O)cc(C)c1C1CC1S(=O)(=O)N1CCC2(CC1)N=C(C1CCC(C)CC1)NC2=O (centres unmarked) [Compound 740, 1-(3,5-Dimethyl-4-{2-[2-(4-methyl-cyclohexyl)-4-oxo-1,3,8-triaza-spiro[4.5]dec-1-ene-8-sulfonyl]-cyclopropyl}-phenyl)-1-methyl-urea]	123%	–
Cc1cc(NS(N)(=O)=O)ccc1/C=C/S(=O)(=O)N1CCC2(CC1)N=C(c1cccc(OC(F)(F)F)c1)NC2=O [Compound 742, N-(3-Methyl-4-{(E)-2-[4-oxo-2-(3-trifluoromethoxy-phenyl)-1,3,8-triaza-spiro[4.5]dec-1-ene-8-sulfonyl]-vinyl}-phenyl)-sulfamide]	50%	–
Cc1cc(NS(=O)(=O)NCCCO)ccc1/C=C/S(=O)(=O)N1CCC2(CC1)N=C(c1cccc(OC(F)(F)F)c1)NC2=O [Compound 743, N-(3-Hydroxy-propyl)-N′-(3-methyl-4-{(E)-2-[4-oxo-2-(3-trifluoromethoxy-phenyl)-1,3,8-triaza-spiro[4.5]dec-1-ene-8-sulfonyl]-vinyl}-phenyl)-sulfamide]	54%	–
CC(=O)N(C)c1ccc(/C=C/CS(=O)(=O)N2CCC3(CC2)N=C(C2CCC(C)CC2)NC3=O)c(C)c1 (centres unmarked) [Compound 744, N-Methyl-N-(3-methyl-4-{(E)-3-[2-(4-methyl-cyclohexyl)-4-oxo-1,3,8-triaza-spiro[4.5]dec-1-ene-8-sulfonyl]-propenyl}-phenyl)-acetamide]	19%	–
Cc1cc2c(CCS(=O)(=O)N3CCC4(CC3)N=C(C3CCCCC3)NC4=O)cccc2[nH]1 [Compound 745, 2-Cyclohexyl-8-[2-(2-methyl-1H-indol-4-yl)-ethanesulfonyl]-1,3,8-triaza-spiro[4.5]dec-1-en-4-one]	67%	–
O=C1NC(c2cccc(OC(F)(F)F)c2)=NC12CCN(S(=O)(=O)CCc1cccc3c1ccn3C[C@H](O)CO)CC2 [Compound 746, 8-{2-[1-((S)-2,3-dihydroxy-propyl)-1H-indol-4-yl]-ethanesulfonyl}-2-(3-trifluoromethoxy-phenyl)-1,3,8-triaza-spiro[4.5]dec-1-en-4-one]	120%	–

Continued, in another order:

cAMP production activity (%) [1]	Structure (SMILES)	cAMP production activity (%) ([…], 0.1 µM)
87%	COc1cc(N(C)C(N)=O)cc(C)c1/C=C/S(=O)(=O)N1CCC2(CC1)N=C(C1CCC(C)CC1)NC2=O (centres unmarked) [Compound 728, 1-(3-Methoxy-5-methyl-4-{(E)-2-[2-(4-methyl-cyclohexyl)-4-oxo-1,3,8-triaza-spiro[4.5]dec-1-ene-8-sulfonyl]-vinyl}-phenyl)-1-methyl-urea]	–
104%	Cc1cc(N(C[C@H](O)CO)C(N)=O)cc(C)c1/C=C/S(=O)(=O)N1CCC2(CC1)N=C(C1CCC(C)CC1)NC2=O (stereo partly drawn) [Compound 733, 1-((S)-2,3-Dihydroxy-propyl)-1-(3,5-dimethyl-4-{(E)-2-[2-(4-methyl-cyclohexyl)-4-oxo-1,3,8-triaza-spiro[4.5]dec-1-ene-8-sulfonyl]-vinyl}-phenyl)-urea]	–
47%	CC(=O)N(c1ccc(/C=C/S(=O)(=O)N2CCC3(CC2)N=C(C2CCCCC2)NC3=O)c(C)c1)C1CCCC1 [Compound 734, N-{4-[(E)-2-(2-Cyclohexyl-4-oxo-1,3,8-triaza-spiro[4.5]dec-1-ene-8-sulfonyl)-vinyl]-3-methyl-phenyl}-N-cyclopentyl-acetamide trifluoroacetate]	–
32%	Cc1cc(NC(=O)[C@@H](N)C(C)C)cc(C)c1/C=C/S(=O)(=O)N1CCC2(CC1)N=C(C1CCCCC1)NC2=O [Compound 735, (S)-2-Amino-N-{4-[(E)-2-(2-cyclohexyl-4-oxo-1,3,8-triaza-spiro[4.5]dec-1-ene-8-sulfonyl)-vinyl]-3,5-dimethyl-phenyl}-3-methyl-butylamide]	–
79%	Cc1cc(NC2=NCCS2)cc(C)c1/C=C/S(=O)(=O)N1CCC2(CC1)N=C(C1CCCCC1)NC2=O [Compound 738, 2-Cyclohexyl-8-{(E)-2-[4-(4,5-dihydro-thiazol-2-ylamino)-2,6-dimethyl-phenyl]-ethenesulfonyl}-1,3,8-triaza-spiro[4.5]dec-1-en-4-one]	–
47%	Cc1cc(OCC2(C)COC2)ccc1/C=C/S(=O)(=O)N1CCC2(CC1)N=C(C1CCCCC1)NC2=O [Compound 739, 2-Cyclohexyl-8-{(E)-2-[2-methyl-4-(3-methyl-oxetan-3-ylmethoxy)-phenyl]-ethenesulfonyl}-1,3,8-triaza-spiro[4.5]dec-1-en-4-one]	–
91%	CC(=CS(=O)(=O)N1CCC2(CC1)N=C(C1CCC(C)CC1)NC2=O)c1c(C)cc(N(C)C(N)=O)cc1C (centres unmarked) [Compound 741, 1-(3,5-dimethyl-4-{1-methyl-2-[2-(4-methyl-cyclohexyl)-4-oxo-1,3,8-triaza-spiro[4.5]dec-1-ene-8-sulfonyl]-vinyl}-phenyl)-1-methyl-urea]	–
